Laboratory results reported in patent US6319702A, “Nucleic acids encoding mutant human carboxypeptidase A enzymes” (Glaxo Wellcome, Inc., priority 1993, dated 2001).
Read-outs that look alike come from different tables or passages of the source.

Legend:
[1] = Stability and biodistribution of prodrugs in vivo (HPLC of plasma and tissues); parameters: species or system mice (CD-1 nude; BALB/C where indicated)
268ala = assay: Enzyme kinetics of prodrugs with 268ala mutant of human CPA1 (coupled assay); format: biochemical; settings: 25° C., pH 7.4
Outline: (§1)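 Coupled spectrophotometric assay: released methotrexate converted by excess carboxypeptidase G (17 milliunits) to its pteroate, followed at 315 nm (Δε 9.57 mM^-1 cm^-1). 25° C in 25 mM tris-HCl, 100 mM NaCl, pH 7.4; reaction started with wild-type or mutant carboxypeptidase A. Kinetic constants from initial velocities by Michaelis-Menten analysis.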

in vivo = settings: mouse, iv
[2] = target: T1, wild type human carboxypeptidase A1 (Homo sapiens, UniProt P15085); assay: Enzyme kinetics of prodrugs with wild type human carboxypeptidase A1 (coupled assay); format: biochemical
T1 sequence (P15085 111-419): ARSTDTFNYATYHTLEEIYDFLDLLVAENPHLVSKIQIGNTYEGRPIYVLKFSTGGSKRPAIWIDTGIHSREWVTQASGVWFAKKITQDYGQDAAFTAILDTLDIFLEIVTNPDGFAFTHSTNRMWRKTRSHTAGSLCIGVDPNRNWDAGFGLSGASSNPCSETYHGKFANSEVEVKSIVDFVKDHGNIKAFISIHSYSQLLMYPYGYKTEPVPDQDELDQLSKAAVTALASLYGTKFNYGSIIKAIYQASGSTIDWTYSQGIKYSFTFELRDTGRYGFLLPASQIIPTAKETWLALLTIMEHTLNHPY
Outline: as §1

mutant enzyme = assay: Substrate behaviour with mutant enzyme; format: biochemical, human
Description: This type of compound is not useful for ADEPT.

[3] = mouse, in vivo, iv
268gly = assay: Enzyme kinetics of prodrugs with 268gly mutant of human CPA1 (coupled assay); format: biochemical
Outline: as §1

CN(Cc1cnc2nc(N)nc(N)c2n1)c1ccc(C(=O)N[C@@H](CCC(=O)O)C(=O)N[C@@H](Cc2ccc(O)c(C3CCCC3)c2)C(=O)O)cc1 [Prodrug 13, N-(4-(((2,4-diamino-6-pteridinyl)methyl)methyamino)benzoyl)-L-glutam-1-yl-3-cyclopentyl-L-tyrosine]
concentration of prodrug in cecum ([1]; CECUM, 30 min, 50 mg/kg i.p. or i.v., CD-1 nude mice): 14.4 nmol/g | concentration of prodrug in cecum ([1]; CECUM, 120 min, 50 mg/kg i.p. or i.v., CD-1 nude mice): 4.8 nmol/g | concentration of prodrug in feces ([1]; FECES, 30 min, 50 mg/kg i.p. or i.v., CD-1 nude mice): 665.8 nmol/g | concentration of prodrug in feces ([1]; FECES, 120 min, 50 mg/kg i.p. or i.v., CD-1 nude mice): 738.4 nmol/g | concentration of prodrug in kidney ([1]; KIDNEY, 30 min, 50 mg/kg i.p. or i.v., CD-1 nude mice): 3.7 nmol/g | concentration of prodrug in kidney ([1]; KIDNEY, 120 min, 50 mg/kg i.p. or i.v., CD-1 nude mice): 0.5 nmol/g | concentration of prodrug in large intestine ([1]; LARGE INTESTINE, 30 min, 50 mg/kg i.p. or i.v., CD-1 nude mice): 7.9 nmol/g | concentration of prodrug in large intestine ([1]; LARGE INTESTINE, 120 min, 50 mg/kg i.p. or i.v., CD-1 nude mice): 12.5 nmol/g | concentration of prodrug in liver ([1]; LIVER, 30 min, 50 mg/kg i.p. or i.v., CD-1 nude mice): 47.7 nmol/g | concentration of prodrug in liver ([1]; LIVER, 120 min, 50 mg/kg i.p. or i.v., CD-1 nude mice): 129.0 nmol/g | concentration of prodrug in small intestine ([1]; SMALL INTESTINE, 30 min, 50 mg/kg i.p. or i.v., CD-1 nude mice): 373.7 nmol/g | concentration of prodrug in small intestine ([1]; SMALL INTESTINE, 120 min, 50 mg/kg i.p. or i.v., CD-1 nude mice): 322.1 nmol/g | concentration of prodrug in spleen ([1]; SPLEEN, 30 min, 50 mg/kg i.p. or i.v., CD-1 nude mice): 0.6 nmol/g | concentration of prodrug in spleen ([1]; SPLEEN, 120 min, 50 mg/kg i.p. or i.v., CD-1 nude mice): 0.2 nmol/g | stability in vivo (in words) ([1]; mice, 50 mg/kg): stable in vivo | remaining at 0.5 h ([1]; mouse, cecum, 50 mg/kg, CECUM, 30 min, 50 mg/kg i.p. or i.v., CD-1 nude mice, read-out: stability: percentage of material observed as intact prodrug, cecum): 100% | remaining at 2 h ([1]; mouse, cecum, 50 mg/kg, CECUM, 120 min, 50 mg/kg i.p. or i.v., CD-1 nude mice, read-out: stability: percentage of material observed as intact prodrug, cecum): 100% | remaining at 0.5 h ([1]; mouse, feces, 50 mg/kg, FECES, 30 min, 50 mg/kg i.p. or i.v., CD-1 nude mice, read-out: stability: percentage of material observed as intact prodrug, feces (converted)): 100% | remaining at 2 h ([1]; mouse, feces, 50 mg/kg, FECES, 120 min, 50 mg/kg i.p. or i.v., CD-1 nude mice, read-out: stability: percentage of material observed as intact prodrug, feces): 100% | remaining at 0.5 h ([1]; mouse, kidney, 50 mg/kg, KIDNEY, 30 min, 50 mg/kg i.p. or i.v., CD-1 nude mice, read-out: stability: percentage of material observed as intact prodrug, kidney): 100% | remaining at 2 h ([1]; mouse, kidney, 50 mg/kg, KIDNEY, 120 min, 50 mg/kg i.p. or i.v., CD-1 nude mice, read-out: stability: percentage of material observed as intact prodrug, kidney): 100% | remaining at 0.5 h ([1]; mouse, large intestine, 50 mg/kg, LARGE INTESTINE, 30 min, 50 mg/kg i.p. or i.v., CD-1 nude mice, read-out: stability: percentage of material observed as intact prodrug, large intestine): 100% | remaining at 2 h ([1]; mouse, large intestine, 50 mg/kg, LARGE INTESTINE, 120 min, 50 mg/kg i.p. or i.v., CD-1 nude mice, read-out: stability: percentage of material observed as intact prodrug, large intestine): 100% | remaining at 0.5 h ([1]; mouse, liver, 50 mg/kg, LIVER, 30 min, 50 mg/kg i.p. or i.v., CD-1 nude mice, read-out: stability: percentage of material observed as intact prodrug, liver (converted)): 100% | remaining at 2 h ([1]; mouse, liver, 50 mg/kg, LIVER, 120 min, 50 mg/kg i.p. or i.v., CD-1 nude mice, read-out: stability: percentage of material observed as intact prodrug, liver): 100% | concentration at 0.5 h ([1]; mouse, plasma, 50 mg/kg, PLASMA, 30 min, 50 mg/kg i.p. or i.v., CD-1 nude mice, read-out: concentration of prodrug in plasma): 3300 nM | remaining at 0.5 h ([1]; mouse, plasma, 50 mg/kg, PLASMA, 30 min, 50 mg/kg i.p. or i.v., CD-1 nude mice, read-out: stability: percentage of material observed as intact prodrug, plasma): 100% | concentration at 2 h ([1]; mouse, plasma, 50 mg/kg, PLASMA, 120 min, 50 mg/kg i.p. or i.v., CD-1 nude mice, read-out: concentration of prodrug in plasma): 600 nM | remaining at 2 h ([1]; mouse, plasma, 50 mg/kg, PLASMA, 120 min, 50 mg/kg i.p. or i.v., CD-1 nude mice, read-out: stability: percentage of material observed as intact prodrug, plasma): 100% | remaining at 0.5 h ([1]; mouse, small intestine, 50 mg/kg, SMALL INTESTINE, 30 min, 50 mg/kg i.p. or i.v., CD-1 nude mice, read-out: stability: percentage of material observed as intact prodrug, small intestine): 100% | remaining at 2 h ([1]; mouse, small intestine, 50 mg/kg, SMALL INTESTINE, 120 min, 50 mg/kg i.p. or i.v., CD-1 nude mice, read-out: stability: percentage of material observed as intact prodrug, small intestine): 100% | remaining at 0.5 h ([1]; mouse, spleen, 50 mg/kg, SPLEEN, 30 min, 50 mg/kg i.p. or i.v., CD-1 nude mice, read-out: stability: percentage of material observed as intact prodrug, spleen): 100% | remaining at 2 h ([1]; mouse, spleen, 50 mg/kg, SPLEEN, 120 min, 50 mg/kg i.p. or i.v., CD-1 nude mice, read-out: stability: percentage of material observed as intact prodrug, spleen): 100% | Km (268ala): 50 µM | kcat (268ala): 0.0006 s⁻¹ | MTD (in vivo): ≥ 50 mg/kg | human CPA catalyzed reaction (in words) [2]: not measureable | kcat/Km for human CPA1 compared with that of the L-phenylalanine prodrug (in words) [2]: much lower | substrate for wild type CPA (in words) [2]: not for the wild type enzyme | kcat (symbol ND) ([2]; Human CPA1, rate too slow to assay): ND (not determined; rate to slow assay. kcat ≤ 0.0005/sec.) | substrate for a mutant enzyme (in words) (mutant enzyme): good substrates for a mutant enzyme | maximum tolerated dose (MTD) [3]: > 50 mg/kg | kcat/Km (268gly; 268Gly): 180000 M⁻¹ s⁻¹ | Km (268gly; 268gly, 25° C., pH 7.4): 18 µM | kcat (268gly; 268gly, 25° C., pH 7.4): 3 s⁻¹
